Measured values from patent publication US20240158446A1, “CYCLIC COMPOUND HAVING SELECTIVE INHIBITORY ACTION ON KRAS OVER HRAS AND NRAS” (CHUGAI SEIYAKU KABUSHIKI KAISHA, priority 2021, published 2024).

How the values were obtained:
[1] = target: GDP-bound HRAS wild-type protein (Homo sapiens, UniProt P01112); test: Binding to HRAS by surface plasmon resonance (SPR), Single Cycle Kinetics; conditions: SPR KD ratio HRAS/KRAS, class symbols
[2] = target: GDP-bound NRAS wild-type protein (Homo sapiens, UniProt P01111); test: Binding to NRAS by surface plasmon resonance (SPR), Single Cycle Kinetics; conditions: SPR KD ratio NRAS/KRAS, class symbols
Sequence of GDP-bound NRAS wild-type protein (P01111 whole entry): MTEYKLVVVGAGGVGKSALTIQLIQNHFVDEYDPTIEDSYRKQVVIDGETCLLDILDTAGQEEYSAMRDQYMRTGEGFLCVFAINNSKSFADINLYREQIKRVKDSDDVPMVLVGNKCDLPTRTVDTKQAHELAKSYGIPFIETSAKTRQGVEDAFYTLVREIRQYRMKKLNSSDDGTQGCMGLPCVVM

Sequence of GDP-bound HRAS wild-type protein (P01112 whole entry): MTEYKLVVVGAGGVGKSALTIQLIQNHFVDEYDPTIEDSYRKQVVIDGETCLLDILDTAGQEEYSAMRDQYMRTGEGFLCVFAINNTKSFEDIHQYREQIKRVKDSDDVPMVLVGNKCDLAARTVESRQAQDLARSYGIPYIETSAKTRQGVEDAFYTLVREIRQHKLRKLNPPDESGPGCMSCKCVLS

| Structure (SMILES) | HRAS/KRAS (ratio of KD value with respect to GDP-bound HRAS wild-type protein to KD value with respect to KRAS) [1] | NRAS/KRAS (ratio of KD value with respect to GDP-bound NRAS wild-type protein to KD value with respect to KRAS) [2] |
| --- | --- | --- |
| CCO[C@@H]1C[C@H]2C(=O)NC3(CC(C)(C)C3)C(=O)N(C)[C@@H](C3CCCC3)C(=O)N(C)[C@H](C(=O)N(C)C)CC(=O)N(C)[C@@H](CC(C)C)C(=O)N[C@@H]([C@@H](C)CC)C(=O)N(C)CC(=O)N(C)[C@H]3C/C=C\CCN(C3=O)[C@@H](Cc3ccc(C4CC4)cc3)C(=O)N(C)CC(=O)N[C@@H](CCc3ccc(C(F)(F)F)c(OC)c3)C(=O)N2C1 [PP2691, (2S,8S,12R,14S,20S,23S,27S,30S,36S,38Z)-20-cyclopentyl-2-[(4-cyclopropylphenyl)methyl]-12-ethoxy-27-isobutyl-8-[2-[3-methoxy-4-(trifluoromethyl)phenyl]ethyl]-N,N,3′,3′,4,19,22,26,32,35-decamethyl-30-[(1S)-1-methylpropyl]-3,6,9,15,18,21,25,28,31,34,42-undecaoxo-spiro[1,4,7,10,16,19,22,26,29,32,35-undecazatricyclo[34.5.1.0^10,14]dotetracont-38-ene-17,1′-cyclobutane]-23-carboxamide] | A (a compound having 10 or more and less than 20 is denoted as A) | AA (a compound having 20 or more is denoted as AA) |
| CCO[C@@H]1C[C@H]2C(=O)NC3(CC(C)(C)C3)C(=O)N(C)[C@@H](C3CCCC3)C(=O)N(C)[C@H](C(=O)N(C)C)CC(=O)N(C)[C@@H](CC(C)C)C(=O)N[C@@H]([C@@H](C)CC)C(=O)N(C)CC(=O)N(C)[C@H]3C/C=C\CCN(C3=O)[C@@H](Cc3ccc(C(C)C)cc3)C(=O)N(C)CC(=O)N[C@@H](CCc3ccc(C(F)(F)F)c(OC)c3)C(=O)N2C1 [PP2692] | A (a compound having 10 or more and less than 20 is denoted as A) | A (a compound having 10 or more and less than 20 is denoted as A) |
| CCO[C@@H]1C[C@H]2C(=O)NC3(CC(C)(C)C3)C(=O)N(C)[C@@H](C3CCCC3)C(=O)N(C)[C@H](C(=O)N(C)C)CC(=O)N(C)[C@@H](CC(C)C)C(=O)N[C@@H]([C@@H](C)CC)C(=O)N(C)CC(=O)N(C)[C@H]3C/C=C\CCN(C3=O)[C@@H](Cc3ccc(OC)cc3)C(=O)N(C)CC(=O)N[C@@H](CCc3ccc(C(F)(F)F)c(OC)c3)C(=O)N2C1 [PP2693] | B (a compound having 3 or more and less than 10 is denoted as B) | A (a compound having 10 or more and less than 20 is denoted as A) |
| CCO[C@@H]1C[C@H]2C(=O)NC3(CC(C)(C)C3)C(=O)N(C)[C@@H](C3CCCC3)C(=O)N(C)[C@H](C(=O)N(C)C)CC(=O)N(C)[C@@H](CC(C)C)C(=O)N[C@@H]([C@@H](C)CC)C(=O)N(C)CC(=O)N(C)[C@H]3C/C=C\CCN(C3=O)[C@@H](Cc3ccc(C(C)=O)cc3)C(=O)N(C)CC(=O)N[C@@H](CCc3ccc(C(F)(F)F)c(OC)c3)C(=O)N2C1 [PP2694] | B (a compound having 3 or more and less than 10 is denoted as B) | A (a compound having 10 or more and less than 20 is denoted as A) |
| CCO[C@@H]1C[C@H]2C(=O)NC3(CC(C)(C)C3)C(=O)N(C)[C@@H](C3CCCC3)C(=O)N(C)[C@H](C(=O)N(C)C)CC(=O)N(C)[C@@H](CC(C)C)C(=O)N[C@@H]([C@@H](C)CC)C(=O)N(C)CC(=O)N(C)[C@H]3C/C=C\CCN(C3=O)[C@@H](Cc3ccc4c(c3)CCC4(F)F)C(=O)N(C)CC(=O)N[C@@H](CCc3ccc(C(F)(F)F)c(OC)c3)C(=O)N2C1 [PP2695] | B (a compound having 3 or more and less than 10 is denoted as B) | A (a compound having 10 or more and less than 20 is denoted as A) |
| CCOC[C@H]1C(=O)N[C@@H]([C@@H](C)CC)C(=O)N(C)CC(=O)N(C)[C@H]2C/C=C\CCN(C2=O)[C@@H](Cc2ccc(C)cc2F)C(=O)N(C)CC(=O)N[C@@H](CCc2ccc(C(F)(F)F)c(OC)c2)C(=O)N2C[C@@H](C)C[C@H]2C(=O)NC2(CC(C)(C)C2)C(=O)N(C)[C@@H](C2CCCC2)C(=O)N(C)[C@H](C(=O)N(C)CC)CC(=O)N1C [PP2697] | A (a compound having 10 or more and less than 20 is denoted as A) | A (a compound having 10 or more and less than 20 is denoted as A) |
| CCOC[C@H]1C(=O)N[C@@H]([C@@H](C)CC)C(=O)N(C)CC(=O)N(C)[C@H]2C/C=C\CCN(C2=O)[C@@H](Cc2ccc(C)c(F)c2)C(=O)N(C)CC(=O)N[C@@H](CCc2ccc(C(F)(F)F)c(OC)c2)C(=O)N2C[C@@H](C)C[C@H]2C(=O)NC2(CC(C)(C)C2)C(=O)N(C)[C@@H](C2CCCC2)C(=O)N(C)[C@H](C(=O)N(C)CC)CC(=O)N1C [PP2698] | A (a compound having 10 or more and less than 20 is denoted as A) | A (a compound having 10 or more and less than 20 is denoted as A) |
| CCOC[C@H]1C(=O)N[C@@H]([C@@H](C)CC)C(=O)N(C)CC(=O)N(C)[C@H]2C/C=C\CCN(C2=O)[C@@H](Cc2ccc(C(C)(F)F)cc2)C(=O)N(C)CC(=O)N[C@@H](CCc2ccc(C(F)(F)F)c(OC)c2)C(=O)N2C[C@@H](C)C[C@H]2C(=O)NC2(CC(C)(C)C2)C(=O)N(C)[C@@H](C2CCCC2)C(=O)N(C)[C@H](C(=O)N(C)CC)CC(=O)N1C [PP2699] | B (a compound having 3 or more and less than 10 is denoted as B) | A (a compound having 10 or more and less than 20 is denoted as A) |
| CCOC[C@H]1C(=O)N[C@@H]([C@@H](C)CC)C(=O)N(C)CC(=O)N(C)[C@H]2C/C=C\CCN(C2=O)[C@@H](Cc2ccc(C3CC3)cc2)C(=O)N(C)CC(=O)N[C@@H](CCc2ccc(C(F)(F)F)c(OC)c2)C(=O)N2C[C@@H](C)C[C@H]2C(=O)NC2(CC(C)(C)C2)C(=O)N(C)[C@@H](C2CCCC2)C(=O)N(C)[C@H](C(=O)N(C)CC)CC(=O)N1C [PP2700] | B (a compound having 3 or more and less than 10 is denoted as B) | A (a compound having 10 or more and less than 20 is denoted as A) |
| CCOC[C@H]1C(=O)N[C@@H]([C@@H](C)CC)C(=O)N(C)CC(=O)N(C)[C@H]2C/C=C\CCN(C2=O)[C@@H](Cc2ccc(C(C)C)cc2)C(=O)N(C)CC(=O)N[C@@H](CCc2ccc(C(F)(F)F)c(OC)c2)C(=O)N2C[C@@H](C)C[C@H]2C(=O)NC2(CC(C)(C)C2)C(=O)N(C)[C@@H](C2CCCC2)C(=O)N(C)[C@H](C(=O)N(C)CC)CC(=O)N1C [PP2701] | A (a compound having 10 or more and less than 20 is denoted as A) | A (a compound having 10 or more and less than 20 is denoted as A) |
| CCOC[C@H]1C(=O)N[C@@H]([C@@H](C)CC)C(=O)N(C)CC(=O)N(C)[C@H]2C/C=C\CCN(C2=O)[C@@H](Cc2ccc(OC)cc2)C(=O)N(C)CC(=O)N[C@@H](CCc2ccc(C(F)(F)F)c(OC)c2)C(=O)N2C[C@@H](C)C[C@H]2C(=O)NC2(CC(C)(C)C2)C(=O)N(C)[C@@H](C2CCCC2)C(=O)N(C)[C@H](C(=O)N(C)CC)CC(=O)N1C [PP2702] | B (a compound having 3 or more and less than 10 is denoted as B) | A (a compound having 10 or more and less than 20 is denoted as A) |
| CCOC[C@H]1C(=O)N[C@@H]([C@@H](C)CC)C(=O)N(C)CC(=O)N(C)[C@H]2C/C=C\CCN(C2=O)[C@@H](Cc2ccc(C(C)=O)cc2)C(=O)N(C)CC(=O)N[C@@H](CCc2ccc(C(F)(F)F)c(OC)c2)C(=O)N2C[C@@H](C)C[C@H]2C(=O)NC2(CC(C)(C)C2)C(=O)N(C)[C@@H](C2CCCC2)C(=O)N(C)[C@H](C(=O)N(C)CC)CC(=O)N1C [PP2703] | A (a compound having 10 or more and less than 20 is denoted as A) | AA (a compound having 20 or more is denoted as AA) |
| CCOC[C@H]1C(=O)N[C@@H]([C@@H](C)CC)C(=O)N(C)CC(=O)N(C)[C@H]2C/C=C\CCN(C2=O)[C@@H](Cc2ccc3c(c2)CCC3(F)F)C(=O)N(C)CC(=O)N[C@@H](CCc2ccc(C(F)(F)F)c(OC)c2)C(=O)N2C[C@@H](C)C[C@H]2C(=O)NC2(CC(C)(C)C2)C(=O)N(C)[C@@H](C2CCCC2)C(=O)N(C)[C@H](C(=O)N(C)CC)CC(=O)N1C [PP2704] | B (a compound having 3 or more and less than 10 is denoted as B) | B (a compound having 3 or more and less than 10 is denoted as B) |
| CCC[C@H]1C(=O)N[C@@H]([C@@H](C)CC)C(=O)N(C2CC2)CC(=O)N(C)[C@H]2C/C=C\CCN(C2=O)[C@@H](Cc2ccc(C(F)(F)F)cc2)C(=O)N(C)CC(=O)N[C@@H](CCc2cc(F)c(C(F)(F)F)c(F)c2)C(=O)N2C[C@H](OCC)C[C@H]2C(=O)NC2(CC(C)(C)C2)C(=O)N(C)[C@@H](CC(C)(C)C)C(=O)N(C)[C@H](C(=O)N(C)C)CC(=O)N1C [PP2742] | A (a compound having 10 or more and less than 20 is denoted as A) | AA (a compound having 20 or more is denoted as AA) |
